We go through six molecules from patent US6934639B1, “Methods for designing agents that interact with MMP-13” (Wyeth, priority 2000, dated 2005).

A word on the IC50: it is the concentration at which inhibition is half-maximal. Read a low IC50 as greater potency.

Holding throughout (type): biochemical
For one assay, the target named is MMP-13 (Homo sapiens, UniProt P45452). Description: MMP-13 enzyme inhibition (IC50).
For the next assay, the target named is T1, MMP-1 (Homo sapiens, UniProt P03956).
T1 sequence (P03956 100-469): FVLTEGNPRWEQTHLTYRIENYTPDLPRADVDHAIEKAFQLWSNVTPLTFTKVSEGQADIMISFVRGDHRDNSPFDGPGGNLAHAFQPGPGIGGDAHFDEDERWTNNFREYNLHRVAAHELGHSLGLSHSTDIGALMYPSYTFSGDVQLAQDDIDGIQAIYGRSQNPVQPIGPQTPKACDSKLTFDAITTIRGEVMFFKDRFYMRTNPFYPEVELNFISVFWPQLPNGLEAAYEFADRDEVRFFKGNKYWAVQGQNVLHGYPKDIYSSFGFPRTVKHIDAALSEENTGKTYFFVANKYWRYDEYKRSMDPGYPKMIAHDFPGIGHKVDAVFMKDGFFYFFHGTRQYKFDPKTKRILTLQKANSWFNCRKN
The experiment in a line: MMP-1 enzyme inhibition (IC50).

In another assay the target is MMP-9 (Homo sapiens, UniProt P14780). The experiment in a line: MMP-9 enzyme inhibition (IC50).
Another assay has as its target TACE (Homo sapiens, UniProt P78536). Description: TACE enzyme inhibition (IC50).

Chain of TACE (P78536 215-824): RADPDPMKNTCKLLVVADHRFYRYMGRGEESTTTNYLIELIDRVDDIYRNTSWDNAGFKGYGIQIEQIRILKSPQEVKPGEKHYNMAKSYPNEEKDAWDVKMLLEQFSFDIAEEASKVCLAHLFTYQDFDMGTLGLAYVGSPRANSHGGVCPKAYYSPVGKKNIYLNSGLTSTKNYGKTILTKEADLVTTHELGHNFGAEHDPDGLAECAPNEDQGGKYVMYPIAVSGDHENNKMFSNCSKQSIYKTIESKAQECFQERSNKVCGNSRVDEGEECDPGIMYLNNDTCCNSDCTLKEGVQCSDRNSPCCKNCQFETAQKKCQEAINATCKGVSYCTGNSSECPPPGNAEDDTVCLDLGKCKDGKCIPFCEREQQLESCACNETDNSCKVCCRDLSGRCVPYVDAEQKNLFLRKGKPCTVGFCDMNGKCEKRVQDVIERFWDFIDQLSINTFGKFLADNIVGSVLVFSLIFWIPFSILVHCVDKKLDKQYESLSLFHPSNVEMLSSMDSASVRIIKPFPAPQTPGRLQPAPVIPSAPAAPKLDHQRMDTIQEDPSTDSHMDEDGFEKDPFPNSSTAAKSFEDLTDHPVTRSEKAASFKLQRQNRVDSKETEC
Chain of MMP-9 (P14780 94-707, species assumed): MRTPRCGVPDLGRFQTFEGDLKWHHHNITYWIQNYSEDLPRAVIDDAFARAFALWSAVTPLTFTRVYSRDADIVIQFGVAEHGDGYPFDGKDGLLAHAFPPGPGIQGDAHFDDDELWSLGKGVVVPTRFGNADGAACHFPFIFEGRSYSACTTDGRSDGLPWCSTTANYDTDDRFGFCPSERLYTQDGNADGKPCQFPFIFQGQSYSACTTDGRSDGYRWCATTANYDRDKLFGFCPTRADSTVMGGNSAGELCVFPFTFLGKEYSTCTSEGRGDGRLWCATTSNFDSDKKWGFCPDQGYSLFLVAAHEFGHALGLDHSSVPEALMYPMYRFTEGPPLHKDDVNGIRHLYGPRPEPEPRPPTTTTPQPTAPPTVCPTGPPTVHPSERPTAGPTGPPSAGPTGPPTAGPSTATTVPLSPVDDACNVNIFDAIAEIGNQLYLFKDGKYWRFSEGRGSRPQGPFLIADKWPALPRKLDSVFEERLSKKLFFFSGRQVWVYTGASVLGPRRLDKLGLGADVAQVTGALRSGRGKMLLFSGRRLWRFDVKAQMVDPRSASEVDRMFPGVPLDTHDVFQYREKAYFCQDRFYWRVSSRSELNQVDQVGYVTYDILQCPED

Regarding `Cc1cc(C)c(N(Cc2ccccc2)S(=O)(=O)c2ccc(OCCCc3ccccc3)cc2)c(C(=O)NO)c1` [Compound F], the IC50 against MMP-13 came to 301 nM; on MMP-1 it was 1020 nM; against MMP-9 it was 71 nM; against TACE it was 664 nM. For the same molecule, the “S-1: selectivity, ratio of MMP-1 IC50 with MMP-13” value at MMP-1 (MMP-1 IC50 / MMP-13 IC50) is given as 3.4 x. On MMP-9 (MMP-9 IC50 / MMP-13 IC50), the “S-9: selectivity, ratio of MMP-9 IC50 with MMP-13” value is 0.2 x. Besides, at TACE (TACE IC50 / MMP-13 IC50), the “S-TACE: selectivity, ratio of TACE IC50 with MMP-13” value amounted to 2.2 x.

As for `Cc1cc(C)c(N(Cc2ccccc2)S(=O)(=O)c2ccc(OCCNC(=O)c3cc4ccccc4o3)cc2)c(C(=O)NO)c1` [Compound E, Benzofuran-2-carboxylic acid (2-{4-[benzyl-(2-hydroxycarbamoyl-4,6-dimethyl-phenyl)-sulfamoyl]-phenoxy}-ethyl)-amide], the IC50 on MMP-13 amounted to 17 nM; against MMP-9 it was 945 nM.

For `COc1ccc(S(=O)(=O)N(Cc2cccnc2)c2c(C)cccc2C(=O)NO)cc1` [Compound A, N-Hydroxy-2-[(4-methoxy-benzenesulfonyl)-pyridin-3-ylmethyl-amino]-3-methyl-benzamide], the “potency as inhibitor of MMP-13” value at MMP-13 is given as “low nanomolar”.

`COc1ccc(S(=O)(=O)N(Cc2cccnc2)[C@@H](C(=O)NO)C(C)C)cc1` [CGS-27023A, reference compound]: on MMP-1, the “potency as inhibitor of MMP-1” value is listed as “low nanomolar”.

In the case of `COc1ccc(S(=O)(=O)N(Cc2ccccc2)c2c(C)cc(C)cc2C(=O)NO)cc1` [Compound D, 2-[Benzyl-(4-methoxy-benzenesulfonyl)-amino]-N-hydroxy-3,5-dimethyl-benzamide], the IC50 on TACE amounted to 240 nM.

`Cc1cc(C)c(N(Cc2ccccc2)S(=O)(=O)c2ccc(OCCc3ccccc3)cc2)c(C(=O)NO)c1` [Compound C, 2-[Benzyl-(4-phenethyloxy-benzenesulfonyl)-amino]-N-hydroxy-3,5-dimethyl-benzamide]: the IC50 at MMP-13 was found to be 75 nM; against MMP-1, 750 nM; against MMP-9, 46 nM.
